Literature values, collected in patent US20150141549A1, “ANTIBIOTIC PARTICLES AND PRODUCTION METHOD THEREOF” (Japan EnviroChemicals, Ltd., priority 2012, published 2015).

CCCCNC(=O)OCC#CI [IPBC, 3-iodo-2-propynylbutylcarbamate]
water solubility: 150 ppm
